In ChEMBL document CHEMBL2439971, “Design, synthesis and antiproliferative evaluation of fluorenone analogs with DNA topoisomerase I inhibitory properties” (Bioorg Med Chem, 2013):
Active and inactive are the calls of the source. The calls are words filed in the database; no cut-off is given here.

Columns and labels:
HL-60(TB) [1] = assay: Cytotoxicity against human HL-60(TB) cells after 48 hrs by sulforhodamine B assay; format: functional; details: HL-60, 48 h
[2] = Cytotoxicity against human EKVX cells at 10 uM after 48 hrs by sulforhodamine B assay relative to control; format: functional
MOLT-4 = assay: Cytotoxicity against human MOLT4 cells after 48 hrs by sulforhodamine B assay; format: functional; details: MOLT-4, 48 h
SR = assay: Cytotoxicity against human SR cells after 48 hrs by sulforhodamine B assay; format: functional
KM12 [3] = assay: Cytotoxicity against human KM12 cells at 10 uM after 48 hrs by sulforhodamine B assay relative to control; format: functional
OVCAR-4 = assay: Cytotoxicity against human OVCAR4 cells at 10 uM after 48 hrs by sulforhodamine B assay relative to control; format: functional
MDA-MB-468 = assay: Cytotoxicity against human MDA-MB-468 cells at 10 uM after 48 hrs by sulforhodamine B assay relative to control; format: functional
U-251 = assay: Cytotoxicity against human U251 cells at 10 uM after 48 hrs by sulforhodamine B assay relative to control; format: functional
Malme-3M [4] = assay: Cytotoxicity against human MALME-3M cells after 48 hrs by sulforhodamine B assay; format: functional
M14 [5] = assay: Cytotoxicity against human M14 cells after 48 hrs by sulforhodamine B assay; format: functional; details: M14, 48 h
Homo sapiens = species on record: Homo sapiens; assay: Inhibition of telomerase (unknown origin) at 10 uM TRAP assay
SK-MEL-5 = assay: Cytotoxicity against human SK-MEL-5 cells at 10 uM after 48 hrs by sulforhodamine B assay relative to control; format: functional
[6] = molecular target: DNA topoisomerase 1 (Homo sapiens) (UniProt P11387); assay: Inhibition of recombinant human DNA topoisomerase 1-mediated relaxation of supercoiled pHOT DNA after 45 mins by agarose gel electrophoresis
SW-620 = assay: Cytotoxicity against human SW620 cells at 10 uM after 48 hrs by sulforhodamine B assay relative to control; format: functional
NCI-H226 = assay: Cytotoxicity against human NCI-H226 cells after 48 hrs by sulforhodamine B assay; format: functional; details: NCI-H226, 48 h
PC-3 = assay: Cytotoxicity against human PC3 cells after 48 hrs by sulforhodamine B assay; format: functional, cell-based; details: PC-3, 48 h
K562 = assay: Cytotoxicity against human K562 cells after 48 hrs by sulforhodamine B assay; format: functional; details: K562, 48 h
LOX IMVI [7] = assay: Cytotoxicity against human LOXIMVI cells at 10 uM after 48 hrs by sulforhodamine B assay relative to control; format: functional
RPMI-8226 = assay: Cytotoxicity against human RPMI8226 cells at 10 uM after 48 hrs by sulforhodamine B assay relative to control; format: functional
HL-60(TB) [8] = assay: Cytotoxicity against human HL-60(TB) cells at 10 uM after 48 hrs by sulforhodamine B assay relative to control; format: functional
SK-MEL-28 [9] = assay: Cytotoxicity against human SK-MEL-28 cells after 48 hrs by sulforhodamine B assay; format: functional; details: SK-MEL-28, 48 h
SK-MEL-28 [10] = assay: Cytotoxicity against human SK-MEL-28 cells at 10 uM after 48 hrs by sulforhodamine B assay relative to control; format: functional
Malme-3M [11] = assay: Cytotoxicity against human MALME-3M cells at 10 uM after 48 hrs by sulforhodamine B assay relative to control; format: functional
A549 = assay: Cytotoxicity against human A549 cells at 10 uM after 48 hrs by sulforhodamine B assay relative to control; format: functional
MDA-MB-231 = assay: Cytotoxicity against human MDA-MB-231 cells at 10 uM after 48 hrs by sulforhodamine B assay relative to control; format: functional
NCI-H23 = assay: Cytotoxicity against human NCI-H23 cells at 10 uM after 48 hrs by sulforhodamine B assay relative to control; format: functional
HOP-62 [12] = assay: Cytotoxicity against human HOP62 cells at 10 uM after 48 hrs by sulforhodamine B assay relative to control; format: functional
OVCAR-5 [13] = assay: Cytotoxicity against human OVCAR5 cells at 10 uM after 48 hrs by sulforhodamine B assay relative to control; format: functional
BT-549 = assay: Cytotoxicity against human BT549 cells at 10 uM after 48 hrs by sulforhodamine B assay relative to control; format: functional
MDA-MB-435 = assay: Cytotoxicity against human MDA-MB-435 cells after 48 hrs by sulforhodamine B assay; format: functional; details: MDA-MB-435, 48 h
UACC-62 = assay: Cytotoxicity against human UACC62 cells after 48 hrs by sulforhodamine B assay; format: functional; details: UACC-62, 48 h
MCF7 = assay: Cytotoxicity against human MCF7 cells at 10 uM after 48 hrs by sulforhodamine B assay relative to control; format: functional
M14 [14] = assay: Cytotoxicity against human M14 cells at 10 uM after 48 hrs by sulforhodamine B assay relative to control; format: functional
HOP-62 [15] = assay: Cytotoxicity against human HOP62 cells after 48 hrs by sulforhodamine B assay; format: functional; details: HOP-62, 48 h
HCT-15 = assay: Cytotoxicity against human HCT15 cells after 48 hrs by sulforhodamine B assay; format: functional; details: HCT-15, 48 h
OVCAR-5 [16] = assay: Cytotoxicity against human OVCAR5 cells after 48 hrs by sulforhodamine B assay; format: functional; details: OVCAR-5, 48 h
LOX IMVI [17] = assay: Cytotoxicity against human LOXIMVI cells after 48 hrs by sulforhodamine B assay; format: functional
HT-29 = assay: Cytotoxicity against human HT-29 cells after 48 hrs by sulforhodamine B assay; format: functional; details: HT-29, 48 h
KM12 [18] = assay: Cytotoxicity against human KM12 cells after 48 hrs by sulforhodamine B assay; format: functional; details: KM12, 48 h
[19] = read-out: LC50 (the source's name)

DNA topoisomerase 1 (Homo sapiens), sequence (P11387 whole entry): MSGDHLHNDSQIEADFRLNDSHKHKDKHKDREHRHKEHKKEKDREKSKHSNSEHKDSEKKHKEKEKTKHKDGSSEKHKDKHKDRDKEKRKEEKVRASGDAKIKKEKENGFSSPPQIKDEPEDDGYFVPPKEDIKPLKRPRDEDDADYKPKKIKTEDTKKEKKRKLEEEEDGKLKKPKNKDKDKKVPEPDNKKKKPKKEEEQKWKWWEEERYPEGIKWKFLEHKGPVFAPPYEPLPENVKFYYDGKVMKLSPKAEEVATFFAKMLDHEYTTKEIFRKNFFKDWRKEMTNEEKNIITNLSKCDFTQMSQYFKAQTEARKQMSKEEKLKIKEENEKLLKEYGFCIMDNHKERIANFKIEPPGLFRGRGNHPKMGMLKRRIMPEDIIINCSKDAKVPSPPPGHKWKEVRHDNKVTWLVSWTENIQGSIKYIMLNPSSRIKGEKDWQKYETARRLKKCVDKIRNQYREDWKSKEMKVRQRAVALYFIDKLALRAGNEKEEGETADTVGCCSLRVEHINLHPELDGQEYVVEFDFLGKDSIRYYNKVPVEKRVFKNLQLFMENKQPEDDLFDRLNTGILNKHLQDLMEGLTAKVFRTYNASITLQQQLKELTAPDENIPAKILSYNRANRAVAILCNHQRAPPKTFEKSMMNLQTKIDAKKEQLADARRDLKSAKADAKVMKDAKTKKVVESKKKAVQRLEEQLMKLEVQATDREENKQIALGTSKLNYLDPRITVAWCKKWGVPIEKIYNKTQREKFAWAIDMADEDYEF

CCCCNCC(=O)Nc1ccc2c(c1)C(=O)c1cc(NC(=O)CNCCCC)ccc1-2
GI50 (HL-60(TB) [1]): 1100 nM
TGI (HL-60(TB) [1]): 2770 nM
CC50 (HL-60(TB) [1]; [19]): 6.98 µM
Activity [2]: 58.12%
GI50 (MOLT-4): 560 nM
TGI (MOLT-4): 2290 nM
CC50 (MOLT-4; [19]): 7.26 µM
GI50 (SR): 220 nM
TGI (SR): 530 nM
CC50 (SR; [19]): 3.44 µM
Activity (KM12 [3]): 30.09%
Activity (OVCAR-4): -29.46%
Activity (MDA-MB-468): -67.44%
Activity (U-251): -57.52%
GI50 (Malme-3M [4]): 1940 nM
TGI (Malme-3M [4]): 3.98 µM
CC50 (Malme-3M [4]; [19]): 8.17 µM
GI50 (M14 [5]): 1600 nM
TGI (M14 [5]): 3.08 µM
CC50 (M14 [5]; [19]): 5.94 µM
inhibition (Homo sapiens): inactive
Activity (SK-MEL-5): -87.04%
INH [6]: < 5 µM
Activity (SW-620): -4.84%
GI50 (NCI-H226): 10.1 µM
TGI (NCI-H226): 23.3 µM
CC50 (NCI-H226; [19]): 53.6 µM
GI50 (PC-3): 1720 nM
IC50 (PC-3): 3.61 µM
LC50 (concentration killing 50% of cells) (PC-3): 13.1 µM
TGI (PC-3): 4.34 µM
GI50 (K562): 390 nM
TGI (K562): 1560 nM
CC50 (K562; [19]): 5.7 µM
Activity (LOX IMVI [7]): -78.38%
Activity (RPMI-8226): -37.38%
Activity (HL-60(TB) [8]): -63.01%
GI50 (SK-MEL-28 [9]): 1940 nM
TGI (SK-MEL-28 [9]): 3.46 µM
CC50 (SK-MEL-28 [9]; [19]): 6.18 µM
Activity (SK-MEL-28 [10]): -81.88%
Activity (Malme-3M [11]): -68.3%
Activity (A549): -32.16%
Activity (MDA-MB-231): -27.12%
Activity (NCI-H23): 70.39%
Activity (HOP-62 [12]): -5.44%
Activity (OVCAR-5 [13]): 93.22%
Activity (BT-549): 69.3%
GI50 (MDA-MB-435): 1630 nM
TGI (MDA-MB-435): 3.4 µM
CC50 (MDA-MB-435; [19]): 7.1 µM
GI50 (UACC-62): 1610 nM
TGI (UACC-62): 3.03 µM
CC50 (UACC-62; [19]): 5.69 µM
Activity (MCF7): 10.48%
Activity (M14 [14]): -91.02%
GI50 (HOP-62 [15]): 2070 nM
TGI (HOP-62 [15]): 6.74 µM
CC50 (HOP-62 [15]; [19]): 26 µM
GI50 (HCT-15): 1260 nM
TGI (HCT-15): 3.34 µM
CC50 (HCT-15; [19]): 8.89 µM
GI50 (OVCAR-5 [16]): 3.06 µM
TGI (OVCAR-5 [16]): 10.6 µM
CC50 (OVCAR-5 [16]; [19]): 34.5 µM
GI50 (LOX IMVI [17]): 1050 nM
TGI (LOX IMVI [17]): 2340 nM
CC50 (LOX IMVI [17]; [19]): 5.18 µM
GI50 (HT-29): 1100 nM
TGI (HT-29): 2530 nM
CC50 (HT-29; [19]): 5.86 µM
GI50 (KM12 [18]): 1640 nM
TGI (KM12 [18]): 3.38 µM
CC50 (KM12 [18]; [19]): 7 µM
